Test results published in patent publication US7893078B2 (priority 2001, dated 2011).
Several values for one entry are separate records, joined by “and”; a condition that tells them apart may be missing. Identical values can stand only once. Entries after “also recorded” stand apart in the source; their conditions may differ.

What was measured:
trichoepithelioma = conditions: human, in vivo
Source text: (§1) Trichoepithelioma is another tumor associated with genetic changes that cause increased hedgehog-smoothened signalling (Vorechovsky L. et al. (1997) Cancer Res. 57:4677-4681; Nilsson M. et al. (2000) Proc. Natl. Acad. Sci. USA 97:3438-3443).

[1] = test system: normal epidermis and hair follicles; assay: Normal skin exposed to the same schedule and doses of cyclopamine cream; histology, immunohistochemistry and follow-up
Source text: (§2) The base cream used is made predominantly of heavy paraffin oil (10% w/w), vaseline (10% w/w), stearyl alcohol (8% w/w), polyoxysteareth-40 (3% w/w) and water (68% w/w), but another suitably formulated base cream is also possible. […] Night-time applications, avoided in this schedule because of possible loss of cream from the patient skin to linens during sleep, can be performed by suitable dermal patches.

melanocytic nevi = assay: Cyclopamine cream on mole / melanocytic nevi; type: in vivo, human
Source text: as §1

[2] = test system: basal cell carcinoma (BCC); conditions: human, in vivo
Description: as §2
Every third hour, about 20 μl cream was applied directly onto the lower half and the upper half was left untreated.
The tumor was then followed up without treatment for a study of the possible late effects. […] For example expression of the cell adhesion molecule CD44 is known to increase upon differentiation of the epidermal basal cells to the upper spinous layer cells (Kooy A J et al (1999) Human Pathology 30:1328-1335).

CC1=C2C[C@H]3[C@@H](CC=C4C[C@@H](O)CC[C@@]43C)[C@@H]2CC[C@]12O[C@@H]1C[C@H](C)CN[C@H]1[C@H]2C [Cyclopamine]
Clinical regression of trichoepithelioma (trichoepithelioma): rapid regression
Appearance of former skin sites of cyclopamine application at long-term follow-up ([1]; followed up more than 31 months): healthy-looking normal skin and hair
Adverse effect on tissues and putative stem cells (histology, cytokeratin 15 and 19, Ber-Ep4) ([1]; normal skin exposed to same schedule and doses as the BCCs): no adverse effect
Effect on melanocytic nevi (melanocytic nevi; 18 mM cyclopamine cream, another volunteer, data not shown): rapid depigmentation and disappearance
Size and pigmentation of mole near treated tumor (melanocytic nevi; cyclopamine by diffusion from adjacent application area, 24th hour): decreased size and pigmentation
% of Cells Labelled with Ber-Ep4 [2]: 0 ± 0%
% of Cells showing ≦ 2 Morphological Signs of Apoptosis on H & E Stained Tissue Sections [2]: 20 ± 8% and 18 ± 11%
CD44 labelling of residual tumor cells (differentiation marker) [2]: markedly increased, strong labelling of essentially all residual tumor cells
Clinical regression of BCC [2]: rapid clinical regressions; also recorded: rapid regression; also recorded: largely regressed
Ki-67 antigen expression (proliferation marker) [2]: no longer expressed
Labelling of residual BCC cells with Ulex Europaeus lectin type 1 (differentiation marker) [2]: heterogenous labelling
